SMILES strings stand for the structures.

Test [1] concerns FOXO activity in MDA-MB-453 (HER2 positive breast cancer cell line). Briefly: Computational FOXO model on Erlotinib-treated MDA-MB-453 cells (GSE30516). The settings on record: MDA-MB-453 treated with Erlotinib; public dataset GSE30516.
Protocol: (§1) Public datasets from samples that were treated with drugs targeting growth factor pathways. A. GEO GSE51212. […] B. GEO GSE30516 dataset.
(§2) Once the model has been calibrated, it could be used on microarray (Affymetrix HG-U133Plus2.0) data of new tumor samples by entering probeset measurements as observations in the bottom layer, and inferring backwards in the model the activity probability of the FOXO3 transcription factor. The model was frozen and applied to microarray data of cell line and tissue samples by entering probeset measurements as observations into the model, inferring backwards FOXO transcription factor activity score as the log-2 value of the FOXO transcription factor odds p/(1−p).
(§3) Parameters enforcing relationships between the FOXO transcription complex and target genes were manually set to improve generalization behavior of the model across different tissue types (11). Parameters describing relationships between target genes and their respective probe sets were calibrated on a public data set of Human Umbilical Vein Endothelial Cells (HUVEC) carrying inducible constitutively active FOXO3.A3-ER, and a threshold for FOXO-activity was set (GSE16573) (20).
Test [2] has as its system FOXO activity in BT20 (triple-negative breast cancer cell line). As to the kind of experiment: Computational FOXO model on Erlotinib-treated BT20 cells (GSE30516). The settings on record: BT20 treated with Erlotinib; public dataset GSE30516.
Protocol: as §1, §2, §3
The subject of test [3] is FOXO activity in MCF7 (ER positive breast cancer cell line). As to the kind of experiment: Computational FOXO model on Erlotinib-treated MCF7 cells (GSE30516). Conditions: MCF7 treated with Erlotinib; public dataset GSE30516.
Protocol: as §1, §2, §3
Test [4] deals with FOXO3 activity in EGFR-mutant HCC827 lung cancer cell line. As to the kind of experiment: Computational FOXO model on drug-treated HCC827 cells (GSE51212). Conditions: HCC827 treated with drug vs untreated (FOXO scored inactive); public dataset GSE51212.
Protocol: as §1, §2, §3
Test [5] relates to FOXO activity in Human Umbilical Vein Endothelial Cells (HUVEC). As to the kind of experiment: Computational FOXO model on HUVEC with 4OHT-inducible FOXO3.A3-ER (GSE16573). Type of test: cell-based. The source says: A. The Bayesian network structure used as a basis for the modeling approach shown as a simplified model of the transcriptional program of a cellular signal transduction pathway, consisting of three types of nodes: transcription factor, target gene and microarray probe sets corresponding to target genes. B. Training of the computational FOXO3 model on a public GEO dataset GSE16573, consisting of Affymetrix microarray 2.0 Plus expression data from HUVEC containing a 4OHT-inducible FOXO3.A3-ER expression construct. Each bar represents a sample analysis result.
The probabilistic relations in the Bayesian network model were made quantitative using experimental data to enable quantitative reasoning on new experimental samples.

For the compound `C#Cc1cccc(Nc2ncnc3cc(OCCOC)c(OCCOC)cc23)c1` [Erlotinib], the FOXO activity score result in test [1], in test [2] and in test [3] was “increased” throughout.
Turning to `Cn1c(=O)n(-c2ccc(C(C)(C)C#N)cc2)c2c3cc(-c4cnc5ccccc5c4)ccc3ncc21` [BEZ235], the “FOXO3 activity scored by the FOXO model” value in test [4] was “scored active”.
For `CC/C(=C(\c1ccc(O)cc1)c1ccc(OCCN(C)C)cc1)c1ccccc1` [4OHT], the “FOXO activity predicted by the Bayesian model” value is “highly active FOXO” in test [5] (HUVEC-FOXO3.A3-ER treated with 4OHT); “low FOXO3 activity” in test [5] (HUVECs expressing FOXO3.A3-ER-H212R (reduced DNA binding) treated with 4OHT); “low FOXO activity” in test [5] (HUVECs without construct, treated with 4OHT).

Source of the values: US20190376142A1, “METHOD TO DISTINGUISH TUMOR SUPRESSIVE FOXO ACTIVITY FROM OXIDATIVE STRESS” (KONINKLIJKE PHILIPS N.V., priority 2016, published 2019).
